Where “and” joins values, the source holds several entries; their conditions need not be identical. Identical values can stand only once.
Key:
[1] = Transcutaneous activation: photodegradation of BPD in plasma in vivo; design: species or system mice; conditions: for BPD in Plasma: individual values; for photodegraded BPD, Dose / Photodegraded BPD: in vivo
Text: The light box was custom built at a workshop at the University of British Columbia. It was composed of two layers of 14 75 W tungsten-halogen reflector bulbs (General Electric), which illuminated the treatment area from the top and from the bottom. Light was filtered by 1) a set of filters comprising yellow and red plastic films which absorbed most of the light at wavelengths shorter than 600 nm and 2) 15 mm thick water filters which absorbed light above 900 nm. Cooling was provided by a steady flow of cold water in the water filters and by a set of 5 fans. The light intensity was measured by an IL 1350 Photometer (International Light).
The intensity of light delivered by the top and bottom sets of bulbs was not uniform. The bottom set delivered 33-40 mW/cm^2 as measured at floor level of the exposure chamber, while the top set delivered 27-33 mW/cm^2 as measured at the skin surface of the backs of the animals. The range described resulted from inconsistent influence at the horizontal plane of irradiation. In addition, mice moved about during light exposure, so that at various times different parts of their skin received different amounts of light. Therefore, the doses delivered to the surface of mice skin must be approximated and the calculations have been based on an intensity of 30 mW/cm^2.
Determination of BPD Concentration in Plasma: Plasma samples were obtained by centrifugation of blood collected from mice and stored frozen at -20° C. until assessment. The concentration of BPD in the samples was determined by fluorometry using a Jasco Model FP-770 (Japan Spectroscopic Co.) spectrofluorometer and a microcuvette (Far UV Quartz Cell, Starna Cells Inc.). Excitation and emission wavelengths were 439 and 699 nm, respectively. Plasma samples were diluted 20-fold with PBS containing 1% Triton® X-100 immediately before fluorescence was determined. BPD standards were prepared in 5% mouse plasma in PBS with 1% Triton® X-100. Under these conditions the relationship between the concentration of BPD and units of fluorescence was linear (correlation coefficient >0.99) for concentrations between 0.1 ng/ml and 1 μg/ml. The limit of detection was below 0.1 ng/ml sample which corresponded to 2 ng/ml plasma. […] The 699 nm fluorescence peak of BPD was virtually free from any interference.
Fourteen mice (weight 22±1 g) were used in this study. Twelve mice were injected with 20 μg (0.9 mg/kg) of liposomal BPD (in 200 μl) and kept in the dark for 1 hour before exposure to light. The mice each were exposed to light for 30 min, 1 hour or 1.5 hours, which delivered light doses to the skin surface of 54, 108 and 162 J/cm^2, respectively. Immediately after light exposure, blood samples were obtained. At the corresponding times, blood samples were obtained from two mice injected with BPD, but not exposed to light. Two additional mice were tested one hour after injection.
The aim of this study was to determine light penetration of the tissues to activate BPD. It was assumed that the substantial photodegradation of BPD in blood would represent substantial activation of BPD.
The BPD plasma concentration was then determined by fluorescence. The concentrations of unchanged BPD in the plasma of exposed and unexposed control mice were compared.

[2] = tested on: mouse blood; assay: Blood parameters two weeks after treatment (Coulter Counter); format: in vivo, Balb/c mice; conditions: for HB (hemoglobin) / Hct (hematocrit) / MCV / PLT (platelet count) / RBC / WBC: 2 weeks
Method: Blood Tests: Blood was drawn into syringes containing 50 μl of heparin (1000 units/ml saline). Blood samples (0.45 ml) from at least 1 mouse per time point were sent to the Diagnostic Laboratory at the University Hospital, University of British Columbia site, for analysis by a Coulter Counter. Blood morphology was determined on blood films prepared from selected samples by a laboratory technologist.
(§1) Six Balb/c mice (22±1 g weight) were prepared as described above. Five mice were injected twice (24 hour interval) with BPD from DMSO stock (not liposomal BPD) and exposed to light 1 hour after the injection. One mouse was not injected but was exposed to light (light-only control). During the first treatment the mice were injected with 15 μg BPD/mouse in 200 μl of PBS. During the second treatment the mice were injected with 20 μg BPD/mouse (0.9 mg/kg). A single mouse was used as a control for both treatments.
(§2) Immediately post-injection (on both occasions) the animals were kept for 1 hour in the dark and then were placed in individual plastic containers (9×4×5 cm), which were placed in the light box and exposed to light. The individual mice were removed from the light box at different intervals: 15, 30, 45, 60 and 75 min, respectively. The light doses delivered at the surface of the skin were 27, 54, 81, 108 and 135 J/cm^2, respectively. On the second occasion the same light doses were used; however, mice receiving higher light doses on day 1 received lower doses on day 2. The control mouse was exposed to light for 60 min on both occasions. During light exposure, the mice were constantly observed for signs of discomfort or itching. After the second light exposure, the mice were observed daily for a period of 2 weeks for appearance of the skin and general pattern of behavior.
(§3) Two weeks post-treatment blood samples were obtained from each mouse by a heart puncture, under halothane anesthesia. Then the mice were sacrificed and autopsied. Their spleen, liver and kidneys were weighed.

[3] = Body and organ weights and gross autopsy two weeks post-treatment; format: in vivo, Balb/c mice
Method: as §1, §2, §3

[4] = 1 1/2 h - C, no light, 2 1/2 h post injection, 0.9 mg/kg, 150 min
[5] = 1 1/2 h light, 162 J/cm^2, 2 1/2 h post injection, 0.9 mg/kg, 150 min
[6] = 30 min - C, no light, 1 1/2 h post injection, 0.9 mg/kg, 90 min
[7] = 30 min light, 54 J/cm^2, 1 1/2 h post injection, 0.9 mg/kg, 90 min
[8] = mouse 1, light 27 then 135 J/cm^2
[9] = mouse 2, light 54 then 108 J/cm^2
[10] = mouse 3, light 81 then 81 J/cm^2
[11] = mouse 4, light 108 then 54 J/cm^2
[12] = mouse 5, light 135 then 27 J/cm^2
[13] = Drug + Light, individual mice, 2 weeks post-treatment

For “benzoprophyrin derivative monoacid ring A [BPD]”, the “BPD in Plasma, Mean ± SD” value ([1]; 0 h - C, no light, 1 h post injection, 0.9 mg/kg) was 1.243 ± 0.262 µg/mL, the “BPD in Plasma” value ([1]; 0 h - C, no light, 1 h post injection, 0.9 mg/kg, 60 min) was 1.428 µg/mL and 1.058 µg/mL and the “BPD in Plasma, Mean ± SD” value [1, 4] was 0.690 ± 0.048 µg/mL. For the same substance, the “BPD in Plasma” value [1, 4] was 0.724 µg/mL and 0.656 µg/mL, the “BPD in Plasma, Mean ± SD” value [1, 5] was 0.168 ± 0.033 µg/mL and the “BPD in Plasma” value [1, 5] was 0.191 µg/mL and 0.145 µg/mL. For the same substance, the “BPD in Plasma, Mean ± SD” value [1, 6] was 0.930 ± 0.441 µg/mL, the “BPD in Plasma” value [1, 6] was 0.618 µg/mL and 1.242 µg/mL and the “BPD in Plasma, Mean ± SD” value [1, 7] was 0.596 ± 0.042 µg/mL. For the same substance, the “BPD in Plasma” value [1, 7] was 0.566 µg/mL and 0.626 µg/mL, the “BPD in Plasma, Mean ± SD” value ([1]; 1 h - C, no light, 2 h post injection, 0.9 mg/kg) was 0.944 ± 0.421 µg/mL and the “BPD in Plasma” value ([1]; 1 h - C, no light, 2 h post injection, 0.9 mg/kg, 120 min) was 0.646 µg/mL and 1.242 µg/mL. For the same substance, the “BPD in Plasma, Mean ± SD” value ([1]; 1 h light, 108 J/cm^2, 2 h post injection, 0.9 mg/kg) was 0.301 ± 0.061 µg/mL, the “BPD in Plasma” value ([1]; 1 h light, 108 J/cm^2, 2 h post injection, 0.9 mg/kg, 120 min) was 0.258 µg/mL and 0.344 µg/mL and the “photodegraded BPD, Dose” value ([1]; 54 J/cm^2) was 0.334 µg/mL. The “Photodegraded BPD” value ([1]; 54 J/cm^2, 0.9 mg/kg) was 36%, the “photodegraded BPD, Dose” value ([1]; 108 J/cm^2) was 0.643 µg/mL and the “Photodegraded BPD” value ([1]; 108 J/cm^2, 0.9 mg/kg) was 68%. The “photodegraded BPD, Dose” value ([1]; 162 J/cm^2) was 0.522 µg/mL, the “Photodegraded BPD” value ([1]; 162 J/cm^2, 0.9 mg/kg) was 76% and the “BPD photodegraded in blood in vivo” value ([1]; light doses of 54-162 J/cm^2, 0.9 mg/kg) was 36-76%. The “plasma concentrations of BPD at the beginning of exposure to light” value ([1]; present study, 0.9 mg/kg, 1 hour after injection) was “above 3 μg/ml”, the “HB (hemoglobin)” value [2, 8] was 122 g/L and the “Hct (hematocrit)” value [2, 8] was 0.352. For the same substance, the MCV [2, 8] was 49.5 fL, the “PLT (platelet count)” value [2, 8] was 328 10^6 /ml and the RBC [2, 8] was 7.11 10^9 /ml. For the same substance, the WBC [2, 8] was 4.0 10^6 /ml, the “HB (hemoglobin)” value [2, 9] was 126 g/L and the “Hct (hematocrit)” value [2, 9] was 0.382. The MCV [2, 9] was 49.2 fL, the “PLT (platelet count)” value [2, 9] was 274 10^6 /ml and the RBC [2, 9] was 7.76 10^9 /ml. For the same substance, the WBC ([2]; mouse 2, light 54 then 108 J/cm^2, platelet aggregate may contribute) was 14.7 10^6 /ml, the “HB (hemoglobin)” value [2, 10] was 124 g/L and the “Hct (hematocrit)” value [2, 10] was 0.365. For the same substance, the MCV [2, 10] was 48.9 fL, the “PLT (platelet count)” value [2, 10] was 119 10^6 /ml and the RBC [2, 10] was 7.46 10^9 /ml. The WBC [2, 10] was 8.2 10^6 /ml, the “HB (hemoglobin)” value [2, 11] was 123 g/L and the “Hct (hematocrit)” value [2, 11] was 0.364. The MCV [2, 11] was 47.6 fL, the “PLT (platelet count)” value [2, 11] was 438 10^6 /ml and the RBC [2, 11] was 7.65 10^9 /ml. For the same substance, the WBC [2, 11] was 7.6 10^6 /ml, the “HB (hemoglobin)” value [2, 12] was 108 g/L and the “Hct (hematocrit)” value [2, 12] was 0.316. For the same substance, the MCV [2, 12] was 48.8 fL, the “PLT (platelet count)” value [2, 12] was 134 10^6 /ml and the RBC [2, 12] was 6.47 10^9 /ml. For the same substance, the WBC [2, 12] was 2.9 10^6 /ml, the “all blood values (Tables 3 and 4)” value ([2]; two weeks post-treatment) was “within normal ranges” and the “gross morphology and weights of internal organs” value ([3]; 2 weeks after double treatment, liver, spleen, kidneys) was “normal”. The “toxicity (gross examination of liver, spleen, kidneys; blood parameters)” value ([3]; 2 weeks post-treatment) was “no toxicity was detected”, the Kidneys weight [3, 13] was 0.172 g and 0.343 g and 0.380 g and 0.396 g and 0.310 g and the Liver weight [3, 13] was 1.105 g and 1.190 g and 1.208 g and 1.348 g and 0.958 g. The Spleen weight [3, 13] was 0.077 g and 0.106 g and 0.094 g and 0.108 g and 0.078 g and the “Total Body Weight” value [3, 13] was 22 g and 23 g and 24 g and 25 g and 21 g.
